# Values of other authors in US20160045407A1, “DENTRIFICE WITH INCREMENTAL CHEMISTRIES” (The Procter & Gamble Company, priority 2014, published 2016).
# Settings: concentration level where the cooling effect can be clearly recognized
row,SMILES,cooling threshold
1,CC(C)[C@@H]1CC[C@@H](C)C[C@@H]1O [1-neomenthol],"about 3,000 ppb"
2,CC(C)[C@@H]1CC[C@@H](C)C[C@H]1O [L-menthol],about 800 ppb
3,CC(C)[C@@H]1CC[C@@H](C)C[C@@H]1O [d-neomenthol],"about 25,000 ppb"
